Assay results published in PMC11845761, “Intestinal human carboxylesterase 2 (CES2) expression rescues drug metabolism and most metabolic syndrome phenotypes in global Ces2 cluster knockout mice” (Acta Pharmacologica Sinica, 2024).

Columns and labels:
[1] = Plasma pharmacokinetics of vinorelbine and deacetylvinorelbine after oral vinorelbine in CES2-modified mice; assay type: in vivo, mouse; conditions: oral vinorelbine 10 mg/kg; for AUC0-4h / AUC0-4h ratio (× 10^−3) (deacetylvinorelbine/vinorelbine) / Cmax / Tmax: plasma
Experimental: (§1) For capecitabine 2-h experiments, 6–7 female mice received oral capecitabine (500 mg/kg, 10 μL/g), and tail vein blood samples were collected at 0.125, 0.25, 0.5 and 1 h after drug administration. For the vinorelbine 4-h experiment, 6-7 male mice received vinorelbine intravenously (10 mg/kg, 5 μL/g) or orally (10 mg/kg, 10 μL/g) using a blunt-ended needle. Tail vein blood samples were collected at 0.125, 0.25, 0.5, 1 and 2 h after drug administration. […] At the last time point in each experiment (2 or 4 h), mice were anesthetized with 5% isoflurane and blood was collected by cardiac puncture. […] Plasma was isolated from the blood by centrifugation at 9000 × g for 6 min at 4 °C, and the plasma fraction was collected and stored at −30 °C until analysis.
(§2) Concentrations of capecitabine (and its metabolites) and vinorelbine (and its metabolite) in mouse plasma samples and organ homogenates were determined using two independent validated high-performance liquid chromatography-tandem mass spectrometry assays.
(§3) Pharmacokinetic parameters were calculated by non-compartmental methods using the PK solver software. […] Differences were considered statistically significant when P < 0.05. All data are presented as mean ± SD.

[2] = Plasma pharmacokinetics of vinorelbine and deacetylvinorelbine after i.v. vinorelbine in CES2-modified mice; conditions: i.v. vinorelbine 10 mg/kg; for AUC0-4h / AUC0-4h ratio (× 10^−3) (deacetylvinorelbine/vinorelbine) / Cmax / Tmax: plasma
Experimental: In order to minimize variation among individuals, mice were fasted for 3 h before drug was administered orally or intravenously. […] For the vinorelbine 4-h experiment, 6-7 male mice received vinorelbine intravenously (10 mg/kg, 5 μL/g) or orally (10 mg/kg, 10 μL/g) using a blunt-ended needle. […] Time points of termination were chosen to allow both reasonable assessment of the plasma exposure of the compound and its main metabolites, and adequate measurement of tissue concentrations. In order to minimize the generation and use of mice, and as no pronounced sex differences were expected, female mice were used for the capecitabine studies and male mice for the vinorelbine studies. Tail vein blood sample collection (~50 μL) was performed using microvettes containing dipotassium-EDTA. All blood samples were rapidly placed on ice to limit any ongoing hydrolysis. At the last time point in each experiment (2 or 4 h), mice were anesthetized with 5% isoflurane and blood was collected by cardiac puncture. Cardiac puncture blood samples (600–800 μL) were collected in Eppendorf tubes containing heparin as an anticoagulant. The mice were then sacrificed by cervical dislocation and brain, liver, kidney, lung, small intestine and testis were rapidly removed. Plasma was isolated from the blood by centrifugation at 9000 × g for 6 min at 4 °C, and the plasma fraction was collected and stored at −30 °C until analysis. Organs were homogenized with 4% (w/v) bovine serum albumin and stored at −30 °C until analysis. Relative metabolite-to-parental drug ratio after drug administration was calculated by determining metabolite tissue concentration relative to corresponding parental drug concentration at the last time point.
as §2
Pharmacokinetic parameters were calculated by non-compartmental methods using the PK solver software. The area under the plasma concentration-time curve (AUC) was calculated using the trapezoidal rule, without extrapolating to infinity. The peak plasma concentration (Cmax) and the time of maximum plasma concentration (Tmax) were estimated from the original (individual mouse) data. One-way analysis of variance (ANOVA) was used when multiple groups were compared and the Tukey’s test post hoc correction was used to accommodate multiple testing. The two-sided unpaired Student’s t-test was used when treatments or differences between two specific groups were compared. Kruskal-Wallis rank test was used for semi-quantitative assessment for (H&E)-staining of white adipose tissue and Oil Red O-staining of liver. All statistical analyses were performed using the software GraphPad Prism 8 (GraphPad Software Inc., La Jolla, CA, USA). All the linear data were log-transformed before statistical tests were applied. Differences were considered statistically significant when P < 0.05. All data are presented as mean ± SD.

[3] = Tissue concentrations of vinorelbine and deacetylvinorelbine 4 h after oral vinorelbine in CES2-modified mice; assay type: in vivo, mouse; conditions: oral vinorelbine 10 mg/kg
Experimental: as §1, §2, §3

SMILES: CCC1=C[C@@H]2CN(C1)Cc1c([nH]c3ccccc13)[C@@](C(=O)OC)(c1cc3c(cc1OC)N(C)[C@H]1[C@@](O)(C(=O)OC)[C@H](O)[C@]4(CC)C=CCN5CC[C@]31[C@@H]54)C2 [Deacetylvinorelbine, 4’-O-deacetylvinorelbine]
- AUC0-4h ([1]; male Ces2^–/– mice): 1.0 ± 0.4 ng·h/mL
- AUC0-4h ratio (× 10^−3) (deacetylvinorelbine/vinorelbine) ([1]; male Ces2^–/– mice): 2.0 ± 0.4 × 10^−3
- Cmax ([1]; male Ces2^–/– mice): 0.42 ± 0.15 ng/mL
- Tmax ([1]; male Ces2^–/– mice): 3.7 ± 0.8 h
- AUC0-4h ([1]; male Ces2^–/–A mice): 3.7 ± 2.2 ng·h/mL
- AUC0-4h ratio (× 10^−3) (deacetylvinorelbine/vinorelbine) ([1]; male Ces2^–/–A mice): 6.3 ± 7.8 × 10^−3
- Cmax ([1]; male Ces2^–/–A mice): 1.5 ± 1.1 ng/mL
- Tmax ([1]; male Ces2^–/–A mice): 2.6 ± 1.0 h
- AUC0-4h ([1]; male Ces2^–/–V mice): 3.3 ± 2.3 ng·h/mL
- AUC0-4h ratio (× 10^−3) (deacetylvinorelbine/vinorelbine) ([1]; male Ces2^–/–V mice): 5.3 ± 1.9 × 10^−3
- Cmax ([1]; male Ces2^–/–V mice): 1.4 ± 1.2 ng/mL
- Tmax ([1]; male Ces2^–/–V mice): 2.7 ± 1.0 h
- plasma AUC0-4h, fold increase in Ces2^–/–A compared with Ces2^–/– mice ([1]; male mice): 3.7 fold
- plasma AUC0-4h, fold increase in Ces2^–/–V compared with Ces2^–/– mice ([1]; male mice): 3.3 fold
- AUC0-4h ([1]; male wild-type mice): 238 ± 112 ng·h/mL
- AUC0-4h ratio (× 10^−3) (deacetylvinorelbine/vinorelbine) ([1]; male wild-type mice): 640 ± 170 × 10^−3
- Cmax ([1]; male wild-type mice): 91 ± 44 ng/mL
- Tmax ([1]; male wild-type mice): 1.7 ± 0.7 h
- AUC0-4h ([2]; male Ces2^–/– mice): 10.1 ± 2.3 ng·h/mL
- AUC0-4h ratio (× 10^−3) (deacetylvinorelbine/vinorelbine) ([2]; male Ces2^–/– mice): 1.7 ± 0.2 × 10^−3
- Cmax ([2]; male Ces2^–/– mice): 5.9 ± 1.4 ng/mL
- Tmax ([2]; male Ces2^–/– mice): 0.13 ± 0.00 h
- plasma AUC0-4h, fold decrease vs wild-type ([2]; male Ces2^–/–A mice): 55.5 fold
- AUC0-4h ([2]; male Ces2^–/–A mice): 12.0 ± 3.8 ng·h/mL
- AUC0-4h ratio (× 10^−3) (deacetylvinorelbine/vinorelbine) ([2]; male Ces2^–/–A mice): 2.2 ± 0.5 × 10^−3
- Cmax ([2]; male Ces2^–/–A mice): 7.6 ± 2.7 ng/mL
- Tmax ([2]; male Ces2^–/–A mice): 0.25 ± 0.19 h
- plasma AUC0-4h, fold decrease vs wild-type ([2]; male Ces2^–/–V mice): 41.1 fold
- AUC0-4h ([2]; male Ces2^–/–V mice): 16.2 ± 8.4 ng·h/mL
- AUC0-4h ratio (× 10^−3) (deacetylvinorelbine/vinorelbine) ([2]; male Ces2^–/–V mice): 1.7 ± 0.2 × 10^−3
- Cmax ([2]; male Ces2^–/–V mice): 8.2 ± 3.5 ng/mL
- Tmax ([2]; male Ces2^–/–V mice): 0.17 ± 0.07 h
- AUC0-4h ([2]; male wild-type mice): 666 ± 138 ng·h/mL
- AUC0-4h ratio (× 10^−3) (deacetylvinorelbine/vinorelbine) ([2]; male wild-type mice): 110 ± 60 × 10^−3
- Cmax ([2]; male wild-type mice): 346 ± 104 ng/mL
- Tmax ([2]; male wild-type mice): 0.46 ± 0.76 h
- CSI (small intestine tissue concentration) ([3]; male Ces2^–/– mice): 625 ± 219 ng/g
- CSIC (small intestine contents concentration) ([3]; male Ces2^–/– mice): 1091 ± 405 ng/g
- Ccolon (colon concentration) ([3]; male Ces2^–/– mice): 5.0 ± 2.1 ng/g
- Cliver (liver concentration) ([3]; male Ces2^–/– mice): 82 ± 29 ng/g
- Colon Ratio (x 10^-3) (deacetylvinorelbine /vinorelbine) ([3]; male Ces2^–/– mice): 8.4 ± 1.5 x 10^-3
- Liver Ratio (x 10^-3) (deacetylvinorelbine /vinorelbine) ([3]; male Ces2^–/– mice): 15 ± 7.5 x 10^-3
- Small intestine Ratio (x 10^-3) (deacetylvinorelbine /vinorelbine) ([3]; male Ces2^–/– mice): 34 ± 10.0 x 10^-3
- Small intestine contents Ratio (x 10^-3) (deacetylvinorelbine /vinorelbine) ([3]; male Ces2^–/– mice): 6.7 ± 1.4 x 10^-3
- liver deacetylvinorelbine-to-vinorelbine ratio, fold decrease vs wild-type ([3]; male Ces2^–/– mice): 333 fold
- small intestine tissue deacetylvinorelbine-to-vinorelbine ratio ([3]; male Ces2^–/– mice): 0.034 ± 0.010
- CSI (small intestine tissue concentration) ([3]; male Ces2^–/–A mice): 748 ± 225 ng/g
- CSIC (small intestine contents concentration) ([3]; male Ces2^–/–A mice): 1120 ± 623 ng/g
- Ccolon (colon concentration) ([3]; male Ces2^–/–A mice): 6.0 ± 2.6 ng/g
- Cliver (liver concentration) ([3]; male Ces2^–/–A mice): 162 ± 52 ng/g
- Colon Ratio (x 10^-3) (deacetylvinorelbine /vinorelbine) ([3]; male Ces2^–/–A mice): 7.8 ± 2.6 x 10^-3
- Liver Ratio (x 10^-3) (deacetylvinorelbine /vinorelbine) ([3]; male Ces2^–/–A mice): 19 ± 1.7 x 10^-3
- Small intestine Ratio (x 10^-3) (deacetylvinorelbine /vinorelbine) ([3]; male Ces2^–/–A mice): 39 ± 8.0 x 10^-3
- Small intestine contents Ratio (x 10^-3) (deacetylvinorelbine /vinorelbine) ([3]; male Ces2^–/–A mice): 5.9 ± 1.6 x 10^-3
- liver deacetylvinorelbine-to-vinorelbine ratio, fold decrease vs wild-type ([3]; male Ces2^–/–A mice): 263 fold
- small intestine tissue deacetylvinorelbine-to-vinorelbine ratio ([3]; male Ces2^–/–A mice): 0.039 ± 0.008
- CSI (small intestine tissue concentration) ([3]; male Ces2^–/–V mice): 808 ± 578 ng/g
- CSIC (small intestine contents concentration) ([3]; male Ces2^–/–V mice): 957 ± 441 ng/g
